Measurements as given in PubChem BioAssay AID248 (DTP/NCI, 2004).
Values joined by “and” are separate entries in the source; they are usually repeats but may differ in a detail not shown here. Equal entries are not always repeated. Inconclusive results and toxic doses are left out. Cut-off read from the data, not from the text of the source: active = T/C of 150% or more; inactive = T/C below 125%.

Tested on: L1210 leukemia ip in BDF1 mice, survival T/C
Assay: NCI In Vivo Anticancer Drug Screen. Data for tumor model L1210 Leukemia (intraperitoneal) in B6D2F1 (BDF1) mice
Details: endpoint: mean survival time, higher = longer survival
In short: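 Ratio derived from survival: compound-dosed mice over vehicle-dosed mice, all bearing a transplantable tumor.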

[1] = dose: 12.5 mg/kg/injection, schedule: Q01DX009 (ip), vehicle: Klucel (hydroxypropylcellulose) (HPC)
[2] = dose: 100.0 mg/kg/injection, schedule: Q01DX001 (ip), vehicle: saline
[3] = dose: 200.0 mg/kg/injection, schedule: Q01DX001 (ip), vehicle: saline
[4] = dose: 400.0 mg/kg/injection, schedule: Q01DX001 (ip), vehicle: saline
[5] = dose: 100.0 mg/kg/injection, schedule: Q01DX009 (ip), vehicle: saline with Tween-80
[6] = dose: 100.0 mg/kg/injection, schedule: Q04DX003 (ip), vehicle: saline with Tween-80
[7] = dose: 200.0 mg/kg/injection, schedule: Q01DX009 (ip), vehicle: saline with Tween-80
[8] = dose: 200.0 mg/kg/injection, schedule: Q04DX003 (ip), vehicle: saline with Tween-80
[9] = dose: 400.0 mg/kg/injection, schedule: Q04DX003 (ip), vehicle: saline with Tween-80
[10] = dose: 100.0 mg/kg/injection, schedule: Q01DX009 (ip), vehicle: saline
[11] = dose: 200.0 mg/kg/injection, schedule: Q01DX009 (ip), vehicle: saline
[12] = dose: 400.0 mg/kg/injection, schedule: Q01DX009 (ip), vehicle: saline
[13] = dose: 200.0 mg/kg/injection, schedule: Q01DX001 (ip), vehicle: carboxymethylcellulose (CMC)
[14] = dose: 400.0 mg/kg/injection, schedule: Q01DX001 (ip), vehicle: carboxymethylcellulose (CMC)
[15] = dose: 100.0 mg/kg/injection, schedule: Q01DX001 (ip), vehicle: carboxymethylcellulose (CMC)
[16] = dose: 100.0 mg/kg/injection, schedule: Q04DX003 (ip), vehicle: Klucel (hydroxypropylcellulose) (HPC)
[17] = dose: 12.5 mg/kg/injection, schedule: Q04DX003 (ip), vehicle: Klucel (hydroxypropylcellulose) (HPC)
[18] = dose: 25.0 mg/kg/injection, schedule: Q04DX003 (ip), vehicle: Klucel (hydroxypropylcellulose) (HPC)
[19] = dose: 50.0 mg/kg/injection, schedule: Q04DX003 (ip), vehicle: Klucel (hydroxypropylcellulose) (HPC)

Measured: T/C

Cc1cc(N(CCOS(C)(=O)=O)CCOS(C)(=O)=O)ccc1C=Nc1ccc(-c2nc(Cc3ccccc3)sc2C)cc1
inactive: [1] 115 % of control | dose: 66.0 mg/kg/injection, schedule: Q04DX003 (ip), vehicle: Klucel (hydroxypropylcellulose) (HPC) 115 % of control

O=C(Nc1ccc([N+](=O)[O-])cc1)c1cc(N2CCOCC2)ccn1
inactive: [2] 89 % of control and 91 % of control | [3] 94 % of control and 95 % of control | [4] 95 % of control and 91 % of control

COc1cc(C)c(C(=O)c2ccccc2NS(=O)(=O)c2ccc(C)cc2)cc1OC
inactive: dose: 50.0 mg/kg/injection, schedule: Q01DX001 (ip), vehicle: other 98 % of control | dose: 100.0 mg/kg/injection, schedule: Q01DX001 (ip), vehicle: other 95 % of control | dose: 200.0 mg/kg/injection, schedule: Q01DX001 (ip), vehicle: other 92 % of control | dose: 400.0 mg/kg/injection, schedule: Q01DX001 (ip), vehicle: other 104 % of control

O[C@@H]1CCCC[C@@H]1n1cnc2c(=S)nc[nH]c21
inactive: [5] 97 % of control | [6] 98 % of control | [7] 93 % of control | [8] 93 % of control | dose: 400.0 mg/kg/injection, schedule: Q01DX009 (ip), vehicle: saline with Tween-80 92 % of control | [9] 91 % of control

CCCCCNc1ccc(C(=O)O)cc1
inactive: dose: 37.5 mg/kg/injection, schedule: Q01DX009 (ip), vehicle: saline 100 % of control | dose: 75.0 mg/kg/injection, schedule: Q01DX001 (ip), vehicle: acetone 88 % of control | dose: 75.0 mg/kg/injection, schedule: Q01DX009 (ip), vehicle: saline 95 % of control | dose: 75.0 mg/kg/injection, schedule: Q04DX003 (ip), vehicle: saline 100 % of control | dose: 150.0 mg/kg/injection, schedule: Q01DX001 (ip), vehicle: acetone 96 % of control | dose: 150.0 mg/kg/injection, schedule: Q01DX009 (ip), vehicle: saline 92 % of control | dose: 150.0 mg/kg/injection, schedule: Q04DX003 (ip), vehicle: saline 97 % of control | dose: 300.0 mg/kg/injection, schedule: Q01DX001 (ip), vehicle: acetone 102 % of control | dose: 300.0 mg/kg/injection, schedule: Q04DX003 (ip), vehicle: saline 97 % of control

CC1=CCCC1
inactive: [10] 101 % of control | [11] 95 % of control | [12] 95 % of control

C[n+]1ccc(/C=C/c2ccc(O)c3ccccc23)c2ccccc21
inactive: dose: 75.0 mg/kg/injection, schedule: Q01DX001 (ip), vehicle: carboxymethylcellulose (CMC) 100 % of control | dose: 150.0 mg/kg/injection, schedule: Q01DX001 (ip), vehicle: carboxymethylcellulose (CMC) 100 % of control | dose: 300.0 mg/kg/injection, schedule: Q01DX001 (ip), vehicle: carboxymethylcellulose (CMC) 115 % of control

CC(=O)OC1CCC2(C)C(CCC3C2CCC2(C)C3CC3OC(CCC(C)O)C(C)C32)C1 (configuration not stated)
inactive: dose: 25.0 mg/kg/injection, schedule: Q04DX002 (ip), vehicle: saline with Tween-80 102 % of control | dose: 50.0 mg/kg/injection, schedule: Q04DX002 (ip), vehicle: saline with Tween-80 98 % of control | dose: 100.0 mg/kg/injection, schedule: Q04DX002 (ip), vehicle: saline with Tween-80 94 % of control

COC1=CC(=O)C2=C(C1=O)C1(C)CCCC(C)(COC(C)=O)C1CC2 (configuration not stated)
inactive: [13] 95 % of control | [14] 88 % of control

CSc1nc(N)c(N=Nc2ccc(S(=O)(=O)Nc3ccccn3)cc2)c(=O)[nH]1
inactive: [15] 92 % of control | [13] 101 % of control | [14] 95 % of control

O=C(CC(C#Cc1ccccc1)c1ccccc1)c1ccccc1 (configuration not stated)
inactive: dose: 75.0 mg/kg/injection, schedule: Q04DX003 (ip), vehicle: Klucel (hydroxypropylcellulose) (HPC) 97 % of control | dose: 150.0 mg/kg/injection, schedule: Q04DX003 (ip), vehicle: Klucel (hydroxypropylcellulose) (HPC) 101 % of control | dose: 300.0 mg/kg/injection, schedule: Q04DX003 (ip), vehicle: Klucel (hydroxypropylcellulose) (HPC) 94 % of control

COc1ccc2c(c1)C13CCCCC1C(C2)N(CC1(c2ccccc2)CC1)CC3 (configuration not stated)
inactive: dose: 100.0 mg/kg/injection, schedule: Q01DX009 (ip), vehicle: Klucel (hydroxypropylcellulose) (HPC) 98 % of control | [16] 96 % of control | dose: 200.0 mg/kg/injection, schedule: Q01DX009 (ip), vehicle: Klucel (hydroxypropylcellulose) (HPC) 90 % of control | dose: 200.0 mg/kg/injection, schedule: Q04DX003 (ip), vehicle: Klucel (hydroxypropylcellulose) (HPC) 93 % of control | dose: 400.0 mg/kg/injection, schedule: Q04DX003 (ip), vehicle: Klucel (hydroxypropylcellulose) (HPC) 101 % of control

NCCN1CCc2ccccc2C1
inactive: dose: 6.25 mg/kg/injection, schedule: Q01DX009 (ip), vehicle: saline 93 % of control | dose: 12.5 mg/kg/injection, schedule: Q01DX009 (ip), vehicle: saline 106 % of control | dose: 25.0 mg/kg/injection, schedule: Q01DX009 (ip), vehicle: saline 102 % of control

Cc1c(N)cccc1N
inactive: dose: 12.5 mg/kg/injection, schedule: Q01DX009 (ip), vehicle: saline with Tween-80 119 % of control | dose: 12.5 mg/kg/injection, schedule: Q04DX003 (ip), vehicle: saline with Tween-80 95 % of control | dose: 25.0 mg/kg/injection, schedule: Q01DX009 (ip), vehicle: saline with Tween-80 108 % of control | dose: 25.0 mg/kg/injection, schedule: Q04DX003 (ip), vehicle: saline with Tween-80 117 % of control | dose: 50.0 mg/kg/injection, schedule: Q04DX003 (ip), vehicle: saline with Tween-80 117 % of control

O=C1C(=O)c2cc(Cl)ccc2-c2ccc(Cl)cc21
inactive: dose: 50.0 mg/kg/injection, schedule: Q01DX001 (ip), vehicle: carboxymethylcellulose (CMC) 97 % of control | [15] 106 % of control | [13] 103 % of control | [14] 97 % of control

CN(C)N=Nc1ccc(Cl)cc1C(N)=O
inactive: [5] 104 % of control | [6] 105 % of control | [7] 110 % of control | [8] 102 % of control | [9] 100 % of control

C/C=C/C(=O)C12CCCCCCCCCC(=C1N1CCCCC1)C(=O)CC2C (configuration not stated)
inactive: [2] 93 % of control | [10] 90 % of control | [3] 98 % of control | [11] 92 % of control | [4] 98 % of control | [12] 98 % of control

CCC(=O)c1c(C)[nH]c(C)c1C
inactive: dose: 100.0 mg/kg/injection, schedule: Q01DX001 (ip), vehicle: Klucel (hydroxypropylcellulose) (HPC) 96 % of control | dose: 200.0 mg/kg/injection, schedule: Q01DX001 (ip), vehicle: Klucel (hydroxypropylcellulose) (HPC) 95 % of control | dose: 400.0 mg/kg/injection, schedule: Q01DX001 (ip), vehicle: Klucel (hydroxypropylcellulose) (HPC) 96 % of control

C1CCC(N2CC3CCCC2O3)CC1 (configuration not stated)
inactive: dose: 50.0 mg/kg/injection, schedule: Q01DX001 (ip), vehicle: saline 101 % of control | [2] 97 % of control | [3] 95 % of control

CC(=O)NC(=S)Nc1ccccc1
inactive: [17] 95 % of control | [18] 117 % of control | [19] 101 % of control

CC(C)CC(C=NCC(CCN(C)C)(CC(C)C)c1cccc2ccccc12)(CCN(C)C)c1cccc2ccccc12 (configuration not stated)
inactive: [1] 106 % of control | [17] 106 % of control | dose: 25.0 mg/kg/injection, schedule: Q01DX009 (ip), vehicle: Klucel (hydroxypropylcellulose) (HPC) 88 % of control | [18] 94 % of control | [19] 92 % of control

CS(=O)(=O)OCCN(CCOS(C)(=O)=O)c1ccc(C=Nc2cc(Br)c(O)c(Br)c2)cc1
inactive: dose: 20.0 mg/kg/injection, schedule: Q04DX003 (ip), vehicle: Klucel (hydroxypropylcellulose) (HPC) 120 % of control | dose: 40.0 mg/kg/injection, schedule: Q04DX003 (ip), vehicle: Klucel (hydroxypropylcellulose) (HPC) 104 % of control | dose: 80.0 mg/kg/injection, schedule: Q04DX003 (ip), vehicle: Klucel (hydroxypropylcellulose) (HPC) 96 % of control | [16] 113 % of control
